Results reported in a melting point compilation (Tetko et al.; mined from patent text by program, amines drawn as free bases though some values may be those of a salt).

Structure (SMILES)	melting point [°C]
Cc1cc(F)ccc1-c1ccc(S(=O)(=O)N2c3ccccc3CC2C(=O)NCCOc2cc(F)c(C(=O)O)c(F)c2)cc1 (stereo not drawn)	97 to 111
CC1=Nc2ccccc2CC(c2cccnc2)N1C (stereo not drawn)	145 to 148
CC(C)(CC(=O)O)C(=O)C(=O)O	134 to 135
NS(=O)(=O)c1cnc(NC(=O)c2cnn3c(C(F)(F)F)cc(-c4ccc(C(F)(F)F)cc4)nc23)s1	309
CCOC(=O)C(=O)Nc1cccc(OCc2ccccc2)c1C(N)=O	151 to 153
CC(Cl)C(=O)CCCCN1C(=O)c2ccccc2C1=O (stereo not drawn)	61 to 63
CCCc1nc(C=Cc2ccccc2)c(C(=O)O)n1Cc1cc2c(cc1Cl)OCO2	230
C#Cc1ccc2c(c1)c(=O)c(C(=O)OCC)cn2CC	185 to 187
Cc1ccc(C=CC(=O)C2CC2)cc1	75 to 76
CCCCc1nc2c(N)nc3cc(Br)ccc3c2n1CC(C)C	198 to 200
CCOC(=O)C[C@H]1O[C@H](c2ccc(O)cc2OC)c2cc(Cl)ccc2N(CC(C)(C)C)C1=O (relative stereo)	197 to 199
O=C(Nc1ccc2ccc(Cl)nc2n1)N1CC=CCC1	173
Cc1ccc(-c2c(NS(=O)(=O)c3ccc(C(C)(C)C)cc3)nc(S(C)(=O)=O)nc2OCCOCc2ccccc2)cc1	129 to 130
OCC1CCN(CC(O)c2ccc(F)cc2)CC1 (stereo not drawn)	113
O=C1N(c2cc(Cl)cc(Cl)c2)C(=O)C2(Cc3ccc(Br)cc3)CC(F)(F)CN12 (stereo not drawn)	160
CCc1cc(Oc2ccc(S(C)(=O)=O)nc2)cc2cc(C3=NCC(CC(=O)O)S3)[nH]c12 (stereo not drawn)	230 to 232
COC(=O)CCCc1cc2nc(Cl)ccc2n1S(=O)(=O)c1ccc(F)c([N+](=O)[O-])c1	129 to 131
O=C(Nc1ccncc1)c1n[nH]c2ccc(-c3cncc4[nH]ccc34)cc12	> 250
Clc1ccc(-n2nc3c(c2Br)CCCC3)cc1	101 to 102

Structure (SMILES)	melting point [°C]
CC(C)OC(=O)C1=C2SCC(=CC(=O)Sc3ccccc3)N2CC1	216 to 220
COc1ccc(C(=O)N2CCN(c3c(C)c(C)c4c(c3C)C(c3ccc(C)cc3)C(C)(C)O4)CC2)cc1 (stereo not drawn)	163 to 165
CNc1nc(-c2cccc(NC(=O)c3ccc4c(c3)OCO4)c2)c2cc(OC)c(OC)cc2n1	205 to 207
CCOC(=O)C(CBr)=C1C(=N)CCCC1=O	170 to 175
CCOC(=O)c1ccc(NCCC[Si](C)(C)C)cc1	64 to 66
CCCOc1ccc(Br)cc1-c1nc2c(C)cccc2c(=O)[nH]1	179 to 180
CCOC(=O)CC(=O)NC(=O)N1CC1C#N (stereo not drawn)	121 to 123
CCCOc1ncc(NC(C)C(=O)OC)cc1-c1nc2c(CCC)nn(C)c2c(=O)[nH]1 (stereo not drawn)	185 to 187
COC(=O)c1ccc(NC(=O)[C@H](Cc2ccc(-c3ccccc3)cc2)NCP(=O)(OC)OC)cc1	128 to 129
NS(=O)(=O)c1cc(C2CO2)ccc1F (stereo not drawn)	100 to 103
N#CC1=C(C2CC2)Nc2n[nH]cc2C1c1cccc2nocc12 (stereo not drawn)	248
CCCc1c(Cc2ccccc2C(=O)O)cccc1OCCCOc1cc(O)c(-c2ccc(F)cc2)cc1CC	150 to 151
CSc1nccn1NCc1cc(C(C)(C)C)c(O)c(C(C)(C)C)c1	110 to 113
CC(=O)n1c(-c2ccc(C)cc2)cc2ccccc21	67 to 69
COc1cc(C2C3=C(COC3=O)Nc3ccc4cn[nH]c4c32)ccc1F (stereo not drawn)	307 to 309
CC(C)(C)c1cc(CCc2ccccc2NC(=O)NC23CC4CC(CC(C4)C2)C3)cc(C(C)(C)C)c1O	197 to 199
OCCN1CCN(c2cc(Sc3ccc(Cl)cc3)nc(-c3ccccc3)n2)CC1	118 to 120
Cc1ccc([N+](=O)[O-])cc1Nc1nnn[nH]1	245 to 249
CS(=O)(=O)NCCn1c(=O)[nH]c2ccccc21	162 to 170
